The source of these data is patent US12017997B2, “Host-targeted pan-respiratory antiviral small molecule therapeutics” (priority 2021, dated 2024).

Like-named read-outs stand apart in the source and are kept apart here. Some results are limits rather than exact numbers.

For series [1], the system named is recombinant Nipah virus expressing ZsGreen fluorescence protein (rNiV-ZsG). In words: microbe, parasite or virus in culture. To be noted: Henipavirus nipahense, MRC5, 72 h, read-out: MRC-5 EC50.
Series [2] in a line: Toxicity testing: cell viability, Alamar Blue HS. To be noted: human, MRC-5 cells (uninfected).
The test system of series [3] is recombinant Nipah virus expressing ZsGreen fluorescence protein (rNiV-ZsG). To be noted: human.
The test system of another series is MRC-5 cells. Briefly: Toxicity testing: cell viability, Alamar Blue HS. To be noted: read-out: MRC-5 CC50; uninfected MRC-5 cells, 72 hours post-compound treatment.

As for `Cn1nc(C2CC2)cc1C(=O)NCc1cccc(OCc2ccc(C(=O)N3CCN(S(C)(=O)=O)CC3)cc2)c1Cl` [Compound 63], the EC50 in series [1] amounted to 6820 nM. Also, the CC50 at 72 h in series [2] is greater than 5 µM.

For the molecule `COc1c(CNC(=O)c2cc(C3CC3)nn2C)cccc1OCc1ccc(COC(=O)N2CCN(S(=O)(=O)CC(C)C)CC2)cc1` [Compound 173], the EC50 in series [1] is 23.9 nM. Also, the CC50 at 72 h in series [2] was greater than 5 µM. For the molecule `COc1c(CNC(=O)c2cc(C3CC3)nn2C)cccc1OCc1ccc(CN2CCCC2)cc1` [Compound 18], in series [1], the EC50 stood at 124 nM. For the same molecule, the CC50 at 72 h in series [2] was greater than 5 µM. The matching figures for `COc1c(CNC(=O)c2cc(C3CC3)nn2C)cccc1OCc1ccc(CN2CCN(C)CC2)cc1` [Compound 23]: 324 nM and greater than 5 µM. On the same counts, the results for `COc1c(CNC(=O)c2cc(C3CC3)nn2C)cccc1OCc1ccc(C(=O)NC2CCN(S(C)(=O)=O)CC2)cc1` [Compound 94] are 1060 nM and greater than 5 µM.

Consider `COc1c(CNC(=O)c2cc(C3CC3)nn2C)cccc1OCc1ccc(CN2CCN(S(=O)(=O)CC(C)C)CC2)cc1` [Compound 19], for which the CC50 at 72 h in series [2] is greater than 5 µM. Moreover, the EC50 in series [3] amounted to 14.6 nM.

Regarding `COc1c(CNC(=O)c2cc(C3CC3)nn2C)cccc1OCc1ccc(S(=O)(=O)N2CCN(S(C)(=O)=O)CC2)cc1` [Compound 91], the EC50 in series [1] stood at 1660 nM. For the same molecule, the CC50 at 72 h in series [2] is greater than 5 µM. `COc1c(CNC(=O)c2cc(C3CC3)nn2C)cccc1Oc1ccc(C(=O)N2CCN(S(C)(=O)=O)CC2)nn1` [Compound 133]: in series [1], the EC50 was found to be 6320 nM. In addition, in series [2], the CC50 at 72 h is greater than 5 µM.

For the molecule `COc1c(CNC(=O)c2cc(C3CC3)nn2C)cccc1OCc1ccc(C(=O)N2CCN(S(C)(=O)=O)CC2)cc1` [Compound 9], the EC50 in series [1] was determined as 508 nM. The molecule further showed a CC50 at 72 h in series [2] greater than 5 µM. In series [2], `COc1c(CNC(=O)c2cc(C3CC3)nn2C)cccc1OCc1ccc(OC(=O)N2CCN(S(C)(=O)=O)CC2)cc1` [Compound 128] had a half-maximal cytotoxic concentration (CC50) at 72 h greater than 5 µM. With `COc1c(CNC(=O)c2cc(C3CC3)nn2C)cccc1N(C)Cc1ccc(C(=O)N2CCN(S(C)(=O)=O)CC2)cc1` [Compound 113], the EC50 in series [1] stood at 1500 nM. This molecule also registered a CC50 at 72 h in series [2] greater than 5 µM.

For `CN1CCN(Cc2ccc(COc3ccc(CNC(=O)c4cc(C5CC5)nn4C)cc3Cl)cc2)CC1` [Compound 175], the EC50 in series [1] turned out to be 200 nM. The molecule further gave a CC50 at 72 h in series [2] greater than 5 µM. The matching figures for `Cn1nc(C2CC2)cc1C(=O)NCc1ccc(OCc2ccc(C(=O)N3CCN(S(C)(=O)=O)CC3)cc2)c(OC(F)(F)F)c1` [Compound 80]: 1440 nM and greater than 5 µM.

`COc1c(CNC(=O)c2cc(C3CC3)nn2C)cccc1OCc1cccc(CN2CCN(C(C)=O)CC2)c1` [Compound 88]: the EC50 in series [1] turned out to be 144 nM. The same molecule came in with a CC50 at 72 h in series [2] greater than 5 µM.

Regarding `COc1c(CNC(=O)c2cc(C3CC3)nn2C)cccc1N1CCN(S(C)(=O)=O)CC1` [Compound 118], the EC50 in series [1] was found to be 3850 nM. In series [2], the CC50 at 72 h is greater than 5 µM.

Take `COc1c(CNC(=O)c2cc(C3CC3)nn2C)cccc1OCc1ccc(CN2CCN(S(=O)(=O)CC(C)C)CC2)cc1` [Compound 17]: the CC50 in the series with MRC-5 cells is greater than 5 µM. For the same molecule, in series [3], the EC50 turned out to be 29.7 nM. In the case of `COc1c(CNC(=O)c2cc(C3CC3)nn2C)cccc1OCc1ccc(COC(=O)N2CCN(C(C)=O)CC2)cc1` [Compound 174], the half-maximal effective concentration (EC50) in series [1] stood at 129 nM. This molecule yielded a half-maximal cytotoxic concentration (CC50) at 72 h in series [2] greater than 5 µM. The matching figures for `Cc1c(CNCc2cc(C3CC3)nn2C)cccc1OCc1ccc(C(=O)N2CCN(S(C)(=O)=O)CC2)cc1` [Compound 127]: 20000 nM and greater than 5 µM. `COc1c(CNC(=O)c2cc(C3CC3)nn2C)cccc1OCc1ccc(C(=O)N2CCN(S(=O)(=O)CC(C)C)CC2C)cc1` (stereo not shown) [Compound 8]: the EC50 in series [1] stood at 194 nM. This molecule also gave a half-maximal cytotoxic concentration (CC50) at 72 h in series [2] greater than 5 µM.

On to `CC(=O)N1CCN(Cc2ccc(COc3cccc(CNC(=O)c4cc(C5CC5)nn4C)c3F)cc2)CC1` [Compound 13], for which the EC50 in series [1] came to 628 nM. Also, the CC50 at 72 h in series [2] is greater than 5 µM. The matching figures for `COc1c(CNC(=O)c2cc(C3CC3)nn2C)cccc1OCc1ccc(C(=O)N2CCC(N(C)S(C)(=O)=O)CC2)cc1` [Compound 96]: 16100 nM and greater than 5 µM. On the same counts, the results for `COc1c(CNC(=O)c2cc(C3CC3)nn2C)cccc1OCc1ccc(S(=O)(=O)N2CCN(C)CC2)cc1` [Compound 92] are 16700 nM and greater than 5 µM.
